Columns and labels:
Cathepsin S = Cathepsin S activity in Lewis lung carcinoma tumors of treated mice (fluorometric kit); format: in vivo; settings: 12 days treatment; vs untreated (saline) group
Procedure: (§1) The study was performed with C57BL/6 mice at the age of 6-8 weeks. Eight mice were allocated into each study group. Light anesthesia was administered by isoflurane inhalation. LLC cells in a concentration of 2.5×10^5 cells in 100 μl PBS were intradermally injected (subcutaneously) into the right flank of each mice. […] Cisplatin was given according to manufacturer instructions.
(§2) Ten days following tumor inoculation, when the tumor reached a volume of about >60 mm^3, mice were randomly allocated into the study groups. Various treatments were administered to each group starting Day 10 onwards. The treatment duration lasted for 12 days.
(§3) Both Cathepsin B and S activities were measured using samples from the same groups according to kit instructions. […] Cathepsin B Activity Assay Kit (Fluorometric) (ab65300) and Cathepsin S Activity Assay Kit (Fluorometric) (ab65303) by Abcam (Cambridge, UK) were used.

[1] = system: Lewis Lung Carcinoma (LLC); assay: Tumor growth in subcutaneous LLC model, ACC with different stabilizers given IP or IV; format: in vivo, mice; settings: group 2F, per manufacturer
Cathepsin B = Cathepsin B activity in Lewis lung carcinoma tumors of treated mice (fluorometric kit); format: in vivo; settings: 12 days treatment; vs untreated (saline) group
Procedure: 8 tumors were analyzed per group. For the assay, 20 mg from each extracted tumor were weighed and lysed. Measurements were done using Cathepsin B Activity Assay Kit (Fluorometric) (ab65300) by Abcam (Cambridge, UK). The assays were performed on tumors from the two groups. The lysed samples were treated per Kit instructions, i.e., incubated with Cathepsin B substrate for 1 hour at 37° C. to identify the activity of the lysosomal protein.
as §1, §2, §3

[2] = system: Experimental Autoimmune Encephalomyelitis (EAE) model; assay: Clinical score in MOG-induced EAE multiple sclerosis model in mice; format: in vivo

N.N.[Cl][Pt][Cl] [Cisplatin]
increase in Cathepsin S activity in tumors (Cathepsin S): 30% | Mean tumor volume on Day 25 [1]: 1342 mm^3 | reduction in Cathepsin B activity in tumors (Cathepsin B): 43%

Glatiramer acetate [Copaxone]
day on which paralysis signs started ([2]; C57BL mice, n=10 per group): 11 days | score of the paralysis signs at plateau ([2]; after days 15 and 16 of treatments): the same paralysis score | score of the paralysis signs at the end of the study ([2]; study duration 55 days): higher score | paralysis progression at the initial phase ([2]; until day 15, compared to mice given saline or ACC): slower paralysis progression

— patent US20230124095A1 (AMORPHICAL LTD., priority 2020, published 2023)
